{"source": "patent US7956088B2", "about": "“Synthetic lactone formulations and methods of use” (priority 2002, dated 2011)", "key": {"[1]": {"tested_on": "CaSKi (HPV Type-16 positive) human cervical cancer cells", "assay": "In vitro cytotoxicity / anti-proliferative activity", "format": "cell-based"}, "[2]": {"tested_on": "Sarcina lutea", "assay": "Disc zone of inhibition / MIC tests No. 1-3, poured in plate, Mueler Hinton pH 8", "format": "cell-based", "details": "for zone of inhibition at 10 µg/disc: Micrococcus luteus; for zone of inhibition at 10 µg/disc / P (mm), zone of inhibition: pattern disc with 10 μg"}, "[3]": {"tested_on": "PC-4, LnCaP, CaSKi and C-33 tumor cell lines", "details": "curves of 1000 μg LMSV-6 and 1000 μM tamoxifen; cell line not stated", "method": "Four tumor cell lines, including human prostate cancers PC-4 ([…]) and LnCaP ([…]) and human cervical cancers CaSKi (human papilloma virus-(HPV) Type-16 positive] and C-33 (HPV-negative), were cultured in RPMI-10% bovine serum, glutamine and antibiotics at 5% CO2 an 37 degrees Celsius."}, "[4]": {"assay": "Study of adverse reactions in healthy volunteers", "format": "in vivo", "from_the_text": "Nineteen healthy volunteers participated in the study. The age of the participants was between 21 and 40 years with an average of 30.5±7.2 years. The weight was between 150 and 190 pounds with a median of 163.2±14.3 pounds and the height was 1.8 to 2.1 meters with an average of 1.9±0.1 meters. The subjects were selected at random in agreement with the national and international criteria and norms established for investigations with human beings.\nThe state of health of the participants was established using several clinical evaluations, laboratory tests, electrocardiographs and thoracic radiographs. The functionality of the liver and the renal systems was verified by chemical-enzymatic studies. Likewise, for each participant we carried out tests of blood chemistry, pathology and urinalysis. For the females, the absence of pregnancy and/or lactation was verified by means of laboratory tests and gynecological evaluation.\nParticipants were divided into three groups selected at random (n=6): • Group I (placebo) received 2.0 ml of saline solution (ClNa^+, 0.9%), Group II, received 60 mg of LMSV-6 intramuscularly, and Group III (n=7) received 100 mg of LMSV-6 intramuscularly. The participants underwent several tests used to establish the basal values of the objective parameters of the analysis, which included:\nLab Studies: hemogram, blood chemistry, urinalysis and coproanalysis\nCardiovascular Function: arterial tension (TA), cardiac rhythm (RC), cardiac frequency (FC) and radial pulse (PR)\nPulmonary Functions: pulmonary respiration (VP) and respiratory frequency (FR)\nRenal Function: urinary volume and urinary frequency (FU)\nSensory System: hearing, vision, smell, taste and sensory reflexes\nSkin and/or Teguments: sensitivity, skin texture, temperature and musculo-skeletal tone\nNeurovegetative Functions: salivary gland and sweat gland activities, gastrointestinal […] and visceral reflexes\nHypersensitivity Reactions: local sensitivity and systemic sensitivity."}, "[5]": {"tested_on": "Staphylococcus aureus", "assay": "Microbiological sensitivity assay", "format": "cell-based", "from_the_text": "Culture Medium for Staphylococo aureus (USP 23 <81>) • Peptone . . . 1.0 g • Digestive pancreatic Caseine . . . 4.0 g • Yeast Extract . . . 3.0 g • Beef Extract . . . 1.5 g • Dextrose . . . 1.0 g • Agar . . . 15.0 g • Water to make about . . . 1.0 Lit • pH after sterilized 6.6±0.1"}, "[6]": {"tested_on": "PC-4 human prostate cancer cells", "assay": "In vitro cytotoxicity / anti-proliferative activity", "format": "cell-based"}, "[7]": {"tested_on": "C-33 (HPV-negative) human cervical cancer cells", "assay": "In vitro cytotoxicity / anti-proliferative activity", "format": "cell-based"}, "[8]": {"assay": "Rats infected in surgery, then treated", "format": "in vivo", "from_the_text": "The high activity of these lactones against Escherichia coli, Klebsiela pneumoniae, Pseudomona aeruginosa, Staphylococo aureus, among others, and its low molecular weight, are advantageous."}, "[9]": {"tested_on": "Pseudomona aeruginosa", "assay": "Microbiological sensitivity assay", "format": "cell-based", "from_the_text": "Culture Medium for Pseudomona aeruginosa (USP 23 <81>) • Pancreatic digestive Caseine . . . 17.0 g • soy Papaine digestive . . . 3.0 g • Sodium Chloride . . . 5.0 g • Dibasic Potassium Phosphate . . . 2.5 g • Dextrose . . . 2.5 g • Agar . . . 20.0 g • Water to make about . . . 1.0 Lit • pH after sterilized 7.2±0.1"}, "[10]": {"tested_on": "LnCaP human prostate cancer cells", "assay": "In vitro cytotoxicity / anti-proliferative activity", "format": "cell-based"}, "[11]": {"tested_on": "Klebsiela pneumoniae", "assay": "Microbiological sensitivity assay", "format": "cell-based", "from_the_text": "(§1) Culture Medium for E. coli and k. neumoniae (according to USP 23 <81>) • Peptone . . . 5.0 g • Yeast Extract . . . 1.5 g • Beef Extract . . . 1.5 g • Sodium Chloride . . . 3.5 g • Dextrose . . . 1.0 g • Dibasic Potassium Phosphate . . . 3.68 g • Monobasic Potassium Phosphate . . . 1.32 g • Water To make about . . . 1.0 L • pH after sterilized 7.0±0.05 Antibacterial Activity Assays (Minimum Inhibitory Concentration, MIC)"}, "[12]": {"tested_on": "Escherichia coli", "assay": "Microbiological sensitivity assay", "format": "cell-based", "from_the_text": "as §1"}, "[13]": {"tested_on": "Salmonella typhimurium TA100", "assay": "Ames test", "format": "cell-based", "details": "≦100 μg/mL", "method": "(§2) This study was performed in accordance with the norms of USC 79/831, which establishes the guidelines for toxicological analytical methods.\n(§3) The Ames test detects drug-induced ‘reverting mutations’ in previously mutated strains of Salmonella typhimurium, all of which have the rfa mutation that makes their cell membranes permeable to chemical agents. […] The presence of these mutations incapacitates the growth of these cells in a histidine-poor culture medium.\n(§4) A drug is said to be mutagenic if it causes a greater than 2-fold increase in the number of colonies growing in histidine-poor medium."}, "[14]": {"tested_on": "Salmonella typhimurium TA98", "assay": "Ames test", "format": "cell-based", "details": "1 or 10 μg/mL", "method": "as §2, §3, §4"}, "[15]": {"details": "anti-proliferative activity after 72 hours"}}, "note": "Where “and” joins values, the source holds several entries; their conditions need not be identical. Equal entries are not always repeated. Where two headings read alike, the source gives them in different places."}
{"smiles": "CN(Cc1cnc2nc(N)nc(N)c2n1)c1ccc(C(=O)N[C@@H](CCC(=O)O)C(=O)O)cc1", "note": "[methotrexate, reference compound]", "values": [{"measurement": "Anti-proliferative activity against CaSKi", "setting": "[1]", "value": "lacked activity"}]}
{"smiles": "CO/N=C(\\C(=O)N[C@@H]1C(=O)N2C(C(=O)O)=C(CSc3nc(=O)c(=O)[nH]n3C)CS[C@H]12)c1csc(N)n1", "note": "[Ceftriaxone, reference compound]", "values": [{"measurement": "zone of inhibition at 10 µg/disc", "setting": "[2]; Test No 2, read-out: P (mm), zone of inhibition", "value": 18, "unit": "mm"}, {"measurement": "zone of inhibition at 10 µg/disc", "setting": "[2]; Test No 2, unlabelled sum line, read-out: P (mm), total of the three zones", "value": 49, "unit": "mm"}, {"measurement": "zone of inhibition at 10 µg/disc", "setting": "[2]; Test No. 1, read-out: P (mm), zone of inhibition", "value": 12, "unit": "mm"}, {"measurement": "zone of inhibition at 10 µg/disc", "setting": "[2]; Test No. 1, unlabelled sum line, read-out: P (mm), total of the three zones", "value": 43, "unit": "mm"}, {"measurement": "zone of inhibition at 10 µg/disc", "setting": "[2]; Test No. 3, read-out: P (mm), zone of inhibition", "value": 18, "unit": "mm"}, {"measurement": "zone of inhibition at 10 µg/disc", "setting": "[2]; Test No. 3, unlabelled sum line, read-out: P (mm), total of the three zones", "value": 49, "unit": "mm"}, {"measurement": "P (mm), zone of inhibition", "setting": "[2]; Test No 2", "value": "16 mm and 15 mm"}, {"measurement": "P (mm), zone of inhibition", "setting": "[2]; Test No. 1", "value": "15 mm and 16 mm"}, {"measurement": "P (mm), zone of inhibition", "setting": "[2]; Test No. 3", "value": "16 mm and 15 mm"}]}
{"smiles": "CC/C(=C(\\c1ccccc1)c1ccc(OCCN(C)C)cc1)c1ccccc1", "note": "[Tamoxifen]", "values": [{"measurement": "LD50 from curves of percent inhibition of proliferation", "setting": "[3]", "value": 345, "unit": "µM"}]}
{"smiles": "C=C1CCOC1=O", "note": "[LMSV-6, 4,5-dihydro-3-methylene-2[3H]furanone]", "values": [{"measurement": "Respiratory frequency (FR)", "setting": "[4]; during the entire test", "value": "18 to 20", "unit": "respirations per minute"}, {"measurement": "Adverse reactions", "setting": "[4]; human, in vivo", "value": "no evidence, sign or symptom of adverse reactions"}, {"measurement": "Allergic effects (reactivity), local and systemic", "setting": "[4]; human, in vivo", "value": "not any manifestation of allergic reactions"}, {"measurement": "Cutaneous sensitivity and temperature", "setting": "[4]; human, in vivo", "value": "did not provoke any change"}, {"measurement": "Electrocardiograph pattern", "setting": "[4]; human, in vivo", "value": "no variation"}, {"measurement": "Mental state and sensory acuteness (auditory, visual, olfactory, taste)", "setting": "[4]; human, in vivo", "value": "did not provoke any alteration"}, {"measurement": "Respiratory mechanics and dynamics", "setting": "[4]; human, in vivo", "value": "did not alter"}, {"measurement": "Tolerance of maximum dosage tested", "setting": "[4]; human, in vivo", "value": "well tolerated"}, {"measurement": "Activity against Staphylococcus aureus", "setting": "[5]", "value": "high activity"}, {"measurement": "LD50, cytotoxicity", "setting": "[6]; after 4 hours", "value": "> 1,982 μM"}, {"measurement": "LD50", "setting": "[6]; [15]", "value": 59.2, "unit": "µM"}, {"measurement": "LD50, cytotoxicity", "setting": "[7]; after 4 hours", "value": 538, "unit": "µM"}, {"measurement": "LD50", "setting": "[7]; [15]", "value": 7.10, "unit": "µM"}, {"measurement": "S (mm), zone of inhibition", "setting": "[2]; Test No 2, 16.0 microliters/100 mL and 10 μL applied to sensibility disc", "value": "20 mm and 23 mm and 19 mm"}, {"measurement": "S (mm), total of the three zones", "setting": "[2]; Test No 2, 16.0 microliters/100 mL, 10 μL applied, unlabelled sum line", "value": 62, "unit": "mm"}, {"measurement": "S (mm), zone of inhibition", "setting": "[2]; Test No. 1, 5 pure μL applied to sensibility disc", "value": "40 mm and 44 mm and 43 mm"}, {"measurement": "S (mm), total of the three zones", "setting": "[2]; Test No. 1, 5 pure μL, unlabelled sum line", "value": 127, "unit": "mm"}, {"measurement": "Sample zone of inhibition relative to pattern", "setting": "[2]; Test No. 1, versus ceftriaxone 10 μg disc", "value": "three times bigger"}, {"measurement": "S (mm), zone of inhibition", "setting": "[2]; Test No. 3, 10 microliters/10 mL and 20 μL applied to sensibility disc", "value": "3 mm and 4 mm"}, {"measurement": "S (mm), total of the three zones", "setting": "[2]; Test No. 3, 10 microliters/10 mL, 20 μL applied, unlabelled sum line", "value": 10, "unit": "mm"}, {"measurement": "Zone of Inhibition", "setting": "[2]; applied volume to disc 0.2 μL (MIC)", "value": 3.3, "unit": "mm"}, {"measurement": "Zone of Inhibition", "setting": "[2]; applied volume to disc 1.6 M", "value": 20.0, "unit": "mm"}, {"measurement": "Zone of Inhibition", "setting": "[2]; applied volume to disc 5 μL", "value": 42.0, "unit": "mm"}, {"measurement": "Minimum Inhibitory Concentration (MIC)", "setting": "[2]; volume applied to disc", "value": "~0.2", "unit": "µL"}, {"measurement": "Treatment of developed infection", "setting": "[8]", "value": "successfully treated"}, {"measurement": "Activity against Pseudomona aeruginosa", "setting": "[9]", "value": "high activity"}, {"measurement": "LD50", "setting": "[10]; LNCaP, anti-proliferative activity after 72 hours", "value": 26.5, "unit": "µM"}, {"measurement": "LD50, cytotoxicity", "setting": "[10]; LnCaP, after 4 hours", "value": "> 1,982 μM"}, {"measurement": "Activity against Klebsiela pneumoniae", "setting": "[11]", "value": "high activity"}, {"measurement": "Activity against Escherichia coli", "setting": "[12]", "value": "high activity"}, {"measurement": "LD50 from curves of percent inhibition of proliferation", "setting": "[3]", "value": 528, "unit": "µM"}, {"measurement": "Colony count in histidine-poor medium", "setting": "[13]", "value": "did not increase normal colony count"}, {"measurement": "Colony count in histidine-poor medium", "setting": "[14]", "value": "did not increase normal colony count"}, {"measurement": "LD50, cytotoxicity", "setting": "[1]; after 4 hours", "value": "> 1,982 μM"}, {"measurement": "LD50", "setting": "[1]; [15]", "value": 64.3, "unit": "µM"}]}
